Molecules are shown by their SMILES. “Also recorded” adds a separate entry of the source.

One data set deals with SCD1 mRNA. The conditions noted are these: cited from earlier work.
Data set [1] in a line: Oral PK in rats (Table 1). To be noted: plasma, Sprague Dawley rat, 12.5 mg/kg oral gavage. The class given is in vivo.
Data set [2] can be described thus: Oral PK in mice (Table 1). The conditions noted are these: mouse, plasma, C57BL/6 mice, 10 mg/kg oral gavage. The class given is in vivo. As for the experimental part:
Serum chemistry and histochemical analysis is done for both the Western Diet and MCD mouse models. Body weight and Echo-MRI is used to determine lean muscle, fat, and water content of the mice. At the end of the study, the animals are fasted overnight, and blood samples are collected for serum chemistry. A full panel of liver and metabolite biomarkers are assessed. This standard panel includes triglycerides and total cholesterol, triglycerides (TG), ALP, ALT, AST, Creatinine kinase, amylase, lipase, total bilirubin, LDH, as well as calcium, bicarbonate, potassium and sodium. Liver function tests from this panel include Aspartate aminotransferase level (AST), Alanine aminotransferase level […], GGT, Apolipoprotein, Glucose levels, and Alkaline Phosphatase (ALP), Proc-3, GAL-3, YKL-40, CK-18 and Caspase cleaved (MN-65, MN-30). Additionally, insulin, leptin and adiponectin levels are assessed as part of validation of models.
Compound 1 quantification from mouse plasma is performed using LC-MS/MS on ExionLC system equipped with Kinetex XB-C18, 2.1×50 mm (Phenomenex 00B-4496-AN) column coupled with AB Sciex 5500 QTrap instrument (equipped with TurboIonspray ionization source and Analyst software), with Acetonitrile/water/0.1% v/v formic acid as mobile phase. Blood samples collected are centrifuged at 1300 g, 2-8° C., ≥10 minutes and the collected plasma are stored either on ice (less than 1 hour) or at −80° C. until further processing. Predetermined quantities of plasma are vortexed with ice-cold acetonitrile to precipitate the protein content and centrifuged at 1300 g, 2-8° C., ≥10 minutes. Supernatant is taken in a labelled vial and evaporated at 40° C. under a gentle stream of nitrogen. The precipitates are reconstituted in LC-MS grade methanol and centrifuged at 1300 g, 2-8° C., ≥10 minutes. The supernatant is sampled for LC-MS/MS analysis. The concentration of Compound 1 is estimated by standard curve developed from plasma standards spiked with deuterium labeled Compound 1 as internal standard. Deuterium labeled Compound 1 is on-hand. In some embodiments, deuterium labeled Compound 1 has the following structure: […]

In another data set the test system is known kinases. Nature of the data set: Off-target reactivity with kinases. The class given is biochemical.
The subject of data set [3] is C57BL6/J male mice fed on a Western Diet. Nature of the data set: Western Diet-induced liver steatosis in mice, Compound 1 at 2 mg/kg IP for 10 days. The class given is in vivo. As to the method:
The study was performed with C57BL6/J male mice, placed on a Western Diet for 4 months, and treated for 10 days IP with Compound 1 (2 mg/kg−N=3; *P<0.05)

Data set [4] can be described thus: Oral PK in dogs (Table 1). The class given is in vivo. The conditions noted are these: dog, plasma, canine, 20 mg/kg oral gavage.
The next data set addresses T1, SCD1 (Homo sapiens, UniProt O00767).
T1 construct: conversion of ^13C18-stearoyl CoA to ^13C18-oleoyl using LC-MS/MS in liver microsomes; from tissue; host or cells: liver microsomes
T1 sequence (O00767 1-359): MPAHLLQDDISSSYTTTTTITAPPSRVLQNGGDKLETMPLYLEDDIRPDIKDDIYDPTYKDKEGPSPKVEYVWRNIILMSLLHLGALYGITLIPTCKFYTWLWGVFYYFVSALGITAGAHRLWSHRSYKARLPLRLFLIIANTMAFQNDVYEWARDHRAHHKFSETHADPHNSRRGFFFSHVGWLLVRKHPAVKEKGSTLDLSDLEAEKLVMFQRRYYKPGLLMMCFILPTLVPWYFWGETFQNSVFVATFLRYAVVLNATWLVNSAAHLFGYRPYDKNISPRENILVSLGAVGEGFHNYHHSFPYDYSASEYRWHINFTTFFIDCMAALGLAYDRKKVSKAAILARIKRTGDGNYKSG
Put plainly: SCD1 enzyme inhibition (conversion of 13C18-stearoyl CoA to 13C18-oleoyl, LC-MS/MS, liver microsomes). The class given is biochemical. Background: Liver microsomes are a subcellular fraction often used to study metabolism.

Data set [5] in a line: Oral tolerability in male and female rats. The class given is in vivo.
Data set [6] in a line: Non-GLP pharmacokinetic (PK) and toxicokinetic (TK) studies. The class given is in vivo, mice, rats and dogs.
Data set [7] can be described thus: 14-day repeat oral dosing toxicity/toxicokinetics in dogs. The class given is in vivo. As for the experimental part:
Healthy beagles (Canis lupis familiaris) were dosed daily (oral gavage) for 14 days, and blood was collected on day 15.
A dosing regimen has been determined for Compound 1. Single dose and 7-day dosing non-GLP toxicity has been performed in rats and dogs and GLP toxicity in dogs 14 days repeat dosing. […] Dose conversion has been done via allometry based on body surface area.
These issues were attributed to atrophy of the Meibomian gland (the specialized sebaceous gland of the eyelid—see, e.g., FIG. 6). […] Mitigation the sequelae of events that occur due to dry eye is achieved by prophylactic administration of lipid eye drops and clinical eye exam every 14 days during a clinical trial.

For data set [8] the following is noted: meta-analysis, off-label use; cited from earlier work.
Where [9] appears, read: 4 hour, read-out: Drug in Plasma, 4 hour.
Setting [10] is: 8 hour, read-out: Drug in Plasma, 8 hour.
[11] abbreviates: 24 hour, read-out: Drug in Plasma, 24 hour.
[12] abbreviates: Compound 1 alone, Western Diet mice.

With `CCCCCCCCCCCCCCCCCCCC(=O)N[C@H]1CC[C@@]2(C)[C@@H](C1)C[C@@H](O)[C@@H]1[C@@H]2C[C@H](O)[C@]2(C)[C@@H]([C@H](C)CCC(=O)O)CC[C@@H]12` [Aramchol], the “SCD1 mRNA expression levels” value with SCD1 mRNA is listed as “reduces expression of the mRNA for SCD1; also recorded: downregulates SCD1; also recorded: reduces SCD1 mRNA expression levels”.
Consider `CNC(=O)c1ccnc(NC(=O)N2CCC(Oc3ccccc3Cl)CC2)c1` [Compound 1], for which the AUC(0-t) – broadly, exposure summed from dosing to a finite time, without extrapolation to infinity – in [1] turned out to be 96400 ng·h/mL; in data set [2], 20900 ng·h/mL; in data set [4] it was 90500 ng·h/mL. Also, the Cmax – broadly, the maximum level reached in the sampled fluid or tissue – in data set [1] came out at 11600 ng/mL; in data set [2], 4320 ng/mL; in data set [4] it was 12500 ng/mL. Moreover, the Tmax (commonly the time at which the peak concentration occurs) in [1] is 30 min; in [4] it was 60 min. In addition, the concentration at 4 h in [1] (setting [9]) was 8920 ng/mL; in [2] (setting [9]), ~3000 ng/mL; in data set [4] (setting [9]), 8310 ng/mL. Moreover, the results for the concentration at 8 h in data set [1] (setting [10]), in data set [2] (setting [10]) and in [4] (setting [10]) were 4130 ng/mL, ~900 ng/mL and 3200 ng/mL, respectively. In addition, the concentration at 24 h in [1] (setting [11]) was 437 ng/mL; in data set [2] (setting [11]), ~25 ng/mL; in [4] (setting [11]), 212 ng/mL. In addition, the “off-target reactivity with kinases” value in the data set with known kinases is “does not significantly react off-target with any known kinases”. For the same compound, the plasma glucose result in [3] (setting [12]) is given as “does not reduce”. Besides, in data set [3] (setting [12]), the plasma triglycerides entry is on record as “does not reduce”. Moreover, the liver steatosis result in data set [3] (Western Diet 4 months, 2 mg/kg IP 10 days, H&E quantification, N=3, 2 mg/kg) is on record as “reversal of liver steatosis; also recorded: significant reduction in liver steatohepatitis; also recorded: significantly reduced liver steatosis; also recorded: reduces liver steatosis”. Moreover, in data set [3] (Western Diet 4 months, 2 mg/kg IP 10 days, N=3, 2 mg/kg), the “liver function plasma markers / serum chemistry (ALP and BUN levels)” value is “Significant attenuation of liver damage; also recorded: improved liver function plasma markers; also recorded: significantly improves liver function tests”. The “efficacious dose for NASH” value in data set [3] (preliminary data) stood at 2 mg/kg. For the same compound, the “mode of SCD1 inhibition” value at SCD1 is on record as “inhibits enzymatic activity competitively; also recorded: competitive inhibition; also recorded: reversible”. Moreover, the IC50 – broadly, the point on the concentration scale where inhibition reaches its midpoint – at SCD1 (13C18-stearoyl CoA to 13C18-oleoyl, LC-MS/MS, liver microsomes, read-out: IC50 for blocking SCD1 enzymatic activity) stood at 1.9 nM. Further, in [5] (oral 50-300 mg/kg), the “induction of liver enzymes” value is reported as “does not induce liver enzymes”. The tolerability entry in [5] (oral dose range 50-300 mg/kg) is “well tolerated”; in data set [6] (mice, rats and dogs) it was “well-tolerated”. Also, the oral bioavailability entry in data set [6] (in vivo, po) is “good oral bioavailability; also recorded: favorable oral bioavailability; also recorded: orally bioavailable”. Also, the “chemistry, urinalysis, electrocardiograph and hematological parameters vs vehicle control” value in [7] (14-day GLP dog study) was “no substantial differences”. For the same compound, in data set [7] (14-day recover dogs (2M/2F)), the “reversibility of eye damage” value is recorded as “Most of the damage to eyes was reversible”. Besides, the WBC entry in [7] (beagles, daily oral gavage 14 days) is on record as “no dramatic changes”. Besides, in [7] (beagles, daily oral gavage 14 days, blood on day 15), the “liver enzymes or cholesterol levels” value is reported as “no significant changes”. The MTD (commonly the highest dose tested that stayed within the study's limit of toxicity) at 14 days in [7] (both sexes, beagle, dog, in vivo, dogs, oral, read-out: maximum tolerated dose (MTD)) is 20 mg/kg. Moreover, the “therapeutic window for the treatment of NASH” value in data set [7] (dog, in vivo) was “wide therapeutic window”. Besides, the ophthalmic observations result in data set [7] (dogs at the maximum tolerated doses) is “inflammation of the ocular surface with occasional corneal ulceration and low intraocular pressure”. In data set [7] (dogs, 14-day repeat dosing, high doses), the dose limiting toxicity result is “ocular inflammation”.
Consider `CCc1ccc(CCOc2ccc(CC3SC(=O)NC3=O)cc2)nc1` (stereo not drawn) [pioglitazone], for which the “efficacy in human NAFLD” value in data set [8] is “efficacious in human NAFLD”.

These data come from patent US20250381176A1, “SCD1 INHIBITORS FOR TREATING LIVER DISEASE” (MODULATION THERAPEUTICS, INC., priority 2022, published 2025).
